# Data from PubChem BioAssay (NCI).
#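 Growth conditions: 96-well plates. Treatment: test compound, 48 hours, 5 concentrations. Analysis: linear interpolation between bracketing concentrations; unreached endpoints set to highest concentration. GI50 is the concentration that inhibits growth by half. The concentration for full growth arrest is given as TGI.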
# Tests used:
# Experiment in all cases: NCI anticancer screen, dose series, 48 h
# COLO 205 colon = test system: COLO 205 colon
# SR leukemia = test system: SR leukemia
# K-562 leukemia = test system: K-562 leukemia
# UO-31 renal = test system: UO-31 renal
# DU-145 prostate = test system: DU-145 prostate
# SNB-75 CNS = test system: SNB-75 CNS
# MCF7 breast = test system: MCF7 breast
# NCI-H23 lung = test system: NCI-H23 lung
# 786-0 renal = test system: 786-0 renal
# SF-295 CNS = test system: SF-295 CNS
# U251 CNS = test system: U251 CNS
# IGROV1 ovarian = test system: IGROV1 ovarian
# OVCAR-8 ovarian = test system: OVCAR-8 ovarian
# SK-MEL-2 melanoma = test system: SK-MEL-2 melanoma
# HCC-2998 colon = test system: HCC-2998 colon
# NCI/ADR-RES ovarian = test system: NCI/ADR-RES ovarian
# T-47D breast = test system: T-47D breast
# HT29 colon = test system: HT29 colon
# SN12C renal = test system: SN12C renal
# SK-OV-3 ovarian = test system: SK-OV-3 ovarian
# RPMI-8226 leukemia = test system: RPMI-8226 leukemia
# LOX IMVI melanoma = test system: LOX IMVI melanoma
# M14 melanoma = test system: M14 melanoma
# TK-10 renal = test system: TK-10 renal
# SNB-19 CNS = test system: SNB-19 CNS
# A549 NSCLC = test system: A549 NSCLC
# A498 renal = test system: A498 renal
# MALME-3M melanoma = test system: MALME-3M melanoma
# SF-539 CNS = test system: SF-539 CNS
# KM12 colon = test system: KM12 colon
# BT-549 breast = test system: BT-549 breast
# SK-MEL-5 melanoma = test system: SK-MEL-5 melanoma
# NCI-H522 lung = test system: NCI-H522 lung
# OVCAR-3 ovarian = test system: OVCAR-3 ovarian
# OVCAR-5 ovarian = test system: OVCAR-5 ovarian
# HCT-15 colon = test system: HCT-15 colon
# HOP-62 NSCLC = test system: HOP-62 NSCLC
# CAKI-1 renal = test system: CAKI-1 renal
# HL-60(TB) leukemia = test system: HL-60(TB) leukemia
# PC-3 prostate = test system: PC-3 prostate
# CCRF-CEM leukemia = test system: CCRF-CEM leukemia
# NCI-H460 lung = test system: NCI-H460 lung
# UACC-257 melanoma = test system: UACC-257 melanoma
# MDA-MB-231 breast = test system: MDA-MB-231 breast
# HS 578T breast = test system: HS 578T breast
# EKVX NSCLC = test system: EKVX NSCLC
# HCT-116 colon = test system: HCT-116 colon
# MOLT-4 leukemia = test system: MOLT-4 leukemia
# SK-MEL-28 melanoma = test system: SK-MEL-28 melanoma
# SF-268 CNS = test system: SF-268 CNS
# RXF 393 renal = test system: RXF 393 renal
# ACHN renal = test system: ACHN renal
# SW-620 colon = test system: SW-620 colon
# MDA-MB-435 = test system: MDA-MB-435
# UACC-62 melanoma = test system: UACC-62 melanoma
# NCI-H226 lung = test system: NCI-H226 lung
# HOP-92 NSCLC = test system: HOP-92 NSCLC
# OVCAR-4 ovarian = test system: OVCAR-4 ovarian
smiles,measurement,setting,value
O=C1c2cc3c(cc2CC12Cc1cc4c(cc1C2=O)CCC4)CCC3,TGI,COLO 205 colon,> 100000 nM
same,TGI,SR leukemia,> 100000 nM
same,TGI,K-562 leukemia,> 100000 nM
same,TGI,UO-31 renal,> 100000 nM
same,TGI,DU-145 prostate,> 100000 nM
same,TGI,SNB-75 CNS,> 100000 nM
same,TGI,MCF7 breast,> 100000 nM
same,TGI,NCI-H23 lung,> 100000 nM
same,TGI,786-0 renal,> 100000 nM
same,TGI,SF-295 CNS,> 100000 nM
same,TGI,U251 CNS,> 100000 nM
same,TGI,IGROV1 ovarian,> 100000 nM
same,TGI,OVCAR-8 ovarian,> 100000 nM
same,TGI,SK-MEL-2 melanoma,> 100000 nM
same,TGI,HCC-2998 colon,> 100000 nM
same,TGI,NCI/ADR-RES ovarian,> 100000 nM
same,TGI,T-47D breast,> 100000 nM
same,TGI,HT29 colon,> 100000 nM
same,TGI,SN12C renal,> 100000 nM
same,TGI,SK-OV-3 ovarian,> 100000 nM
same,TGI,RPMI-8226 leukemia,> 100000 nM
same,TGI,LOX IMVI melanoma,> 100000 nM
same,TGI,M14 melanoma,> 100000 nM
same,TGI,TK-10 renal,> 100000 nM
same,TGI,SNB-19 CNS,> 100000 nM
same,TGI,A549 NSCLC,> 100000 nM
same,TGI,A498 renal,> 100000 nM
same,TGI,MALME-3M melanoma,> 100000 nM
same,TGI,SF-539 CNS,> 100000 nM
same,TGI,KM12 colon,> 100000 nM
same,TGI,BT-549 breast,> 100000 nM
same,TGI,SK-MEL-5 melanoma,> 100000 nM
same,TGI,NCI-H522 lung,> 100000 nM
same,TGI,OVCAR-3 ovarian,> 100000 nM
same,TGI,OVCAR-5 ovarian,> 100000 nM
same,TGI,HCT-15 colon,> 100000 nM
same,TGI,HOP-62 NSCLC,> 100000 nM
same,TGI,CAKI-1 renal,> 100000 nM
same,TGI,HL-60(TB) leukemia,> 100000 nM
same,TGI,PC-3 prostate,> 100000 nM
same,TGI,CCRF-CEM leukemia,> 100000 nM
same,TGI,NCI-H460 lung,> 100000 nM
same,TGI,UACC-257 melanoma,> 100000 nM
same,TGI,MDA-MB-231 breast,> 100000 nM
same,TGI,HS 578T breast,> 100000 nM
same,TGI,EKVX NSCLC,> 100000 nM
same,TGI,HCT-116 colon,> 100000 nM
same,TGI,MOLT-4 leukemia,> 100000 nM
same,TGI,SK-MEL-28 melanoma,> 100000 nM
same,TGI,SF-268 CNS,> 100000 nM
same,TGI,RXF 393 renal,> 100000 nM
same,TGI,ACHN renal,> 100000 nM
same,TGI,SW-620 colon,> 100000 nM
same,TGI,MDA-MB-435,> 100000 nM
same,TGI,UACC-62 melanoma,> 100000 nM
same,TGI,NCI-H226 lung,> 100000 nM
C=CC1=C[C@@H]2[C@@H]3O[C@]4(CC[C@H](O4)[C@@H](C)C[C@@H](O)C3=O)C[C@H](O)C3=NCC[C@@]32CC1,GI50,COLO 205 colon,< 3.33 nM
same,TGI,COLO 205 colon,< 3.33 nM
same,GI50,SR leukemia,< 3.33 nM
same,TGI,SR leukemia,> 33300 nM
same,GI50,K-562 leukemia,< 3.33 nM
same,TGI,K-562 leukemia,> 33300 nM
same,GI50,UO-31 renal,< 3.33 nM
same,TGI,UO-31 renal,< 3.33 nM
same,GI50,DU-145 prostate,< 3.33 nM
same,TGI,DU-145 prostate,3.35 nM
same,GI50,SNB-75 CNS,< 3.33 nM
same,TGI,SNB-75 CNS,< 3.33 nM
same,GI50,MCF7 breast,< 3.33 nM
same,TGI,MCF7 breast,< 3.33 nM
same,GI50,NCI-H23 lung,< 3.33 nM
same,TGI,NCI-H23 lung,< 3.33 nM
same,GI50,786-0 renal,< 3.33 nM
same,TGI,786-0 renal,3.41 nM
same,GI50,SF-295 CNS,< 3.33 nM
same,TGI,SF-295 CNS,< 3.33 nM
same,GI50,U251 CNS,< 3.33 nM
same,TGI,U251 CNS,390 nM
same,GI50,IGROV1 ovarian,< 3.33 nM
same,TGI,IGROV1 ovarian,3.37 nM
same,GI50,OVCAR-8 ovarian,< 3.33 nM
same,TGI,OVCAR-8 ovarian,44 nM
same,GI50,SK-MEL-2 melanoma,< 3.33 nM
same,TGI,SK-MEL-2 melanoma,11.7 nM
same,GI50,HCC-2998 colon,< 3.33 nM
same,TGI,HCC-2998 colon,< 3.33 nM
same,GI50,NCI/ADR-RES ovarian,< 3.33 nM
same,TGI,NCI/ADR-RES ovarian,5.11 nM
same,GI50,T-47D breast,< 3.33 nM
same,TGI,T-47D breast,6.34 nM
same,GI50,HT29 colon,< 3.33 nM
same,GI50,SN12C renal,< 3.33 nM
same,TGI,SN12C renal,11 nM
same,GI50,SK-OV-3 ovarian,< 3.33 nM
same,TGI,SK-OV-3 ovarian,7.95 nM
same,GI50,RPMI-8226 leukemia,< 3.33 nM
same,TGI,RPMI-8226 leukemia,< 3.33 nM
same,GI50,LOX IMVI melanoma,< 3.33 nM
same,TGI,LOX IMVI melanoma,< 3.33 nM
same,GI50,M14 melanoma,< 3.33 nM
same,TGI,M14 melanoma,< 3.33 nM
same,GI50,TK-10 renal,< 3.33 nM
same,TGI,TK-10 renal,3.85 nM
same,GI50,SNB-19 CNS,< 3.33 nM
same,TGI,SNB-19 CNS,< 3.33 nM
same,GI50,A549 NSCLC,< 3.33 nM
same,TGI,A549 NSCLC,4.59 nM
same,GI50,A498 renal,< 3.33 nM
same,TGI,A498 renal,< 3.33 nM
same,GI50,MALME-3M melanoma,< 3.33 nM
same,TGI,MALME-3M melanoma,< 3.33 nM
same,GI50,SF-539 CNS,< 3.33 nM
same,TGI,SF-539 CNS,< 3.33 nM
same,GI50,KM12 colon,< 3.33 nM
same,TGI,KM12 colon,6.1 nM
same,GI50,BT-549 breast,< 3.33 nM
same,TGI,BT-549 breast,< 3.33 nM
same,GI50,SK-MEL-5 melanoma,< 3.33 nM
same,TGI,SK-MEL-5 melanoma,< 3.33 nM
same,GI50,HOP-92 NSCLC,< 3.33 nM
same,TGI,HOP-92 NSCLC,6.06 nM
same,GI50,NCI-H522 lung,< 3.33 nM
same,TGI,NCI-H522 lung,3.53 nM
same,GI50,OVCAR-3 ovarian,< 3.33 nM
same,TGI,OVCAR-3 ovarian,< 3.33 nM
same,GI50,OVCAR-5 ovarian,< 3.33 nM
same,TGI,OVCAR-5 ovarian,5.13 nM
same,GI50,HCT-15 colon,< 3.33 nM
same,TGI,HCT-15 colon,< 3.33 nM
same,GI50,HOP-62 NSCLC,< 3.33 nM
same,TGI,HOP-62 NSCLC,7.5 nM
same,GI50,CAKI-1 renal,< 3.33 nM
same,TGI,CAKI-1 renal,6.17 nM
same,GI50,HL-60(TB) leukemia,< 3.33 nM
same,TGI,HL-60(TB) leukemia,< 3.33 nM
same,GI50,PC-3 prostate,< 3.33 nM
same,TGI,PC-3 prostate,12.2 nM
same,GI50,CCRF-CEM leukemia,< 3.33 nM
same,TGI,CCRF-CEM leukemia,> 33300 nM
same,GI50,NCI-H460 lung,< 3.33 nM
same,TGI,NCI-H460 lung,< 3.33 nM
same,GI50,UACC-257 melanoma,< 3.33 nM
same,TGI,UACC-257 melanoma,4.86 nM
same,GI50,OVCAR-4 ovarian,< 3.33 nM
same,TGI,OVCAR-4 ovarian,5.22 nM
same,GI50,MDA-MB-231 breast,< 3.33 nM
same,TGI,MDA-MB-231 breast,12.1 nM
same,GI50,HS 578T breast,< 3.33 nM
same,TGI,HS 578T breast,< 3.33 nM
same,GI50,EKVX NSCLC,< 3.33 nM
same,TGI,EKVX NSCLC,3.45 nM
same,GI50,HCT-116 colon,< 3.33 nM
same,TGI,HCT-116 colon,3.71 nM
same,GI50,MOLT-4 leukemia,< 3.33 nM
same,TGI,MOLT-4 leukemia,112 nM
same,GI50,SK-MEL-28 melanoma,< 3.33 nM
same,TGI,SK-MEL-28 melanoma,< 3.33 nM
same,GI50,SF-268 CNS,< 3.33 nM
same,TGI,SF-268 CNS,5.75 nM
same,GI50,RXF 393 renal,< 3.33 nM
same,TGI,RXF 393 renal,< 3.33 nM
same,GI50,ACHN renal,< 3.33 nM
same,TGI,ACHN renal,< 3.33 nM
same,GI50,SW-620 colon,< 3.33 nM
same,TGI,SW-620 colon,5.23 nM
same,GI50,MDA-MB-435,< 3.33 nM
same,TGI,MDA-MB-435,3.34 nM
same,GI50,UACC-62 melanoma,< 3.33 nM
same,TGI,UACC-62 melanoma,4.12 nM
same,GI50,NCI-H226 lung,< 3.33 nM
same,TGI,NCI-H226 lung,< 3.33 nM
